From article PMC7979765, “trans-Translation inhibitors bind to a novel site on the ribosome and clear Neisseria gonorrhoeae in vivo” (Nature Communications, 2021) come the findings set out here.

In brackets after ≈: the same amount, converted by molar mass. Several values for one entry are separate records, joined by “and”; a condition that tells them apart may be missing. Equal values may be shown once. Read-outs that look alike come from different tables or passages of the source.

Series [1] deals with Neisseria gonorrhoeae. In words: MIC, microbroth dilution, G77L medium. The class given is cell-based. Background: In broth dilution the organism is exposed to a series of concentrations in liquid medium.
The test system of series [2] is Salmonella typhimurium strains TA98 and TA100. It is filed as cell-based. On the procedure: The Ames assay was performed at SRI Biosciences, following the standard protocols established there[55]–[57]. In brief, samples were evaluated for their ability to induce genetic damage using the plate incorporation method with Salmonella typhimurium strains TA98 and TA100 with and without a metabolic activation mixture containing 10% Aroclar-1254-induced rat-liver microsomes (S9). MBX-4132 was tested from a 5 mg/mL DMSO stock solution (the solubility limit), which provided plate concentrations up to 500 µg/plate, with serial dilutions accessing doses as low as 5 µg/plate. MBX-4132 precipitated at the two highest dose levels (500 and 100 µg/plate), but at 50 µg/plate, no precipitation was observed. […] Test articles were considered mutagenic when the mean number of revertant colonies increased in a dose-dependent manner. Some cytotoxicity was observed, but sufficient colonies were formed to allow analysis. […] Data for 2-nitrofluorene and sodium azide (positive controls) and DMSO (negative control) were included for reference.

Series [3] relates to N. gonorrhoeae ATCC 49226. Nature of the series: Time-kill assay.
A short description of series [4]: Liver microsome stability, murine. The settings on record: murine liver microsomes. It is filed as in vitro ADME, mouse. As for the experimental part: To examine potential for first-pass metabolism of analogs in the liver, the stability of analogs in the presence of liver microsome preparations (Eurofins Discovery for human, dog and rat; Xenotech for mouse) was measured using the method of Kuhnz, et al.[50]. for murine studies and Oback for the dog, human and rat studies. The amount of parent compound remaining after incubation with microsomes in the presence of NADPH over a 30 min time range was measured using a reverse-phase liquid chromatography/mass spectroscopy method that was customized for each compound. Half-lives were calculated using linear regression analysis of several time points.
A general note: Liver microsomes are vesicles of endoplasmic reticulum, rich in cytochrome P450 enzymes.

A short description of series [5]: Aqueous solubility (nephelometric). It is filed as physicochemical.
Series [6] relates to N. gonorrhoeae strain H041. Nature of the series: In vivo efficacy in the gonorrhea mouse model. The conditions noted are these: for mouse cfu: individual mice, 2.00E+01 = no CFU/mL recovered, limit of detection.

One may read the MIC as the smallest concentration in the dilution series that meets the test's criterion for growth inhibition. A lower MIC goes with inhibition by little substance. With `O=C(Nc1nnc(-c2ccc(F)cc2)o1)N1CCc2ccccc2C1` [MBX4132], the MIC in series [1] (strain MMX 6744, single data point, Micromyx) came out at 0.27 µg/mL (≈ 0.798 µM); in series [1] (strain MMX 6746, single data point, Micromyx), 0.14 µg/mL (≈ 0.414 µM); in series [1] (strain MMX 6752, single data point, Micromyx), 0.27 µg/mL (≈ 0.798 µM); in series [1] (strain MMX 6753, single data point, Micromyx), 0.14 µg/mL (≈ 0.414 µM); in series [1] (strain MMX 6757, single data point, Micromyx), 0.07 µg/mL (≈ 0.207 µM); in series [1] (strain MMX 6758, single data point, Micromyx) it was 0.27 µg/mL (≈ 0.798 µM). Besides, the MIC in series [1] (strain MMX 6762, single data point, Micromyx) worked out at 0.27 µg/mL (≈ 0.798 µM); in series [1] (strain MMX 6767, single data point, Micromyx) it was 0.14 µg/mL (≈ 0.414 µM); in series [1] (strain MMX 6771, single data point, Micromyx), 0.14 µg/mL (≈ 0.414 µM); in series [1] (strain MMX 6793, single data point, Micromyx) it was 0.14 µg/mL (≈ 0.414 µM); in series [1] (strain MMX 6797, single data point, Micromyx), 0.14 µg/mL (≈ 0.414 µM); in series [1] (strain MMX 6803, single data point, Micromyx) it was 0.27 µg/mL (≈ 0.798 µM). For the same molecule, the MIC in series [1] (strain MMX 6812, single data point, Micromyx) was found to be 0.27 µg/mL (≈ 0.798 µM); in series [1] (strain MMX 6818, single data point, Micromyx), 0.27 µg/mL (≈ 0.798 µM); in series [1] (strain MMX 6819, single data point, Micromyx) it was 0.14 µg/mL (≈ 0.414 µM); in series [1] (strain MMX 6879, single data point, Micromyx), 0.14 µg/mL (≈ 0.414 µM); in series [1] (strain MMX 6921, single data point, Micromyx), 0.53 µg/mL (≈ 1.57 µM); in series [1] (strain MMX 6922, single data point, Micromyx), 0.53 µg/mL (≈ 1.57 µM). Moreover, the MIC in series [1] (strain MMX 6983, single data point, Micromyx) came out at 0.53 µg/mL (≈ 1.57 µM); in series [1] (strain MMX 6989, single data point, Micromyx) it was 0.14 µg/mL (≈ 0.414 µM); in series [1] (strain MMX 6990, single data point, Micromyx), 0.14 µg/mL (≈ 0.414 µM); in series [1] (strain MMX 6992, single data point, Micromyx), 0.14 µg/mL (≈ 0.414 µM); in series [1] (strain MMX 6996, single data point, Micromyx), 0.27 µg/mL (≈ 0.798 µM); in series [1] (strain MMX 6998, single data point, Micromyx) it was 0.53 µg/mL (≈ 1.57 µM). Moreover, the MIC in series [1] (strain MMX 7002, single data point, Micromyx) was found to be 0.27 µg/mL (≈ 0.798 µM); in series [1] (strain MMX 7005, single data point, Micromyx) it was 0.03 µg/mL (≈ 0.0887 µM); in series [1] (strain MMX ATCC 49226, single data point, Micromyx) it was 0.27 µg/mL (≈ 0.798 µM).
Turning to `O=[N+]([O-])c1ccc2c(c1)Cc1ccccc1-2` [2-Nitrofluorene, reference compound], in series [2] (TA98, 5 µg/plate, no S9), the “Average Mean Revertants/plate” value was 1331.3 Revertants/plate. Also, the “Mean Revertants/plate” value was 1220 Revertants/plate and 1245 Revertants/plate and 1529 Revertants/plate in series [2] (TA98, 5 µg/plate, no S9, replicates); 1331.3 in series [2] (TA98, without S9, 5 µg/plate).
Regarding `[N-]=[N+]=[N-].[Na+]` [Sodium Azide, reference compound], in series [2] (TA100, 5 µg/plate, no S9), the “Average Mean Revertants/plate” value was 2029.0 Revertants/plate. For the same molecule, the “Mean Revertants/plate” value is 1978 Revertants/plate and 2032 Revertants/plate and 2077 Revertants/plate in series [2] (TA100, 5 µg/plate, no S9, replicates); 2029.0 in series [2] (TA100, without S9, 5 µg/plate).
Regarding `CO/N=C(\C(=O)N[C@@H]1C(=O)N2C(C(=O)O)=C(CSc3nc(=O)c(=O)[nH]n3C)CS[C@H]12)c1csc(N)n1` [CRO, reference compound], the “AVE CFU/ml” value was 9800000 CFU/ml in series [3] (1X MIC, 0 h); 8.20E+06 CFU/ml and 8200000 CFU/ml in series [3] (1X MIC, 1 h); 3.47E+06 CFU/ml and 3466667 CFU/ml in series [3] (1X MIC, 2 h); 60666.7 CFU/ml and 6.07E+04 CFU/ml in series [3] (1X MIC, 4 h); 27333.3 CFU/ml and 2.73E+04 CFU/ml in series [3] (1X MIC, 6 h); 5733.33 CFU/ml and 5.73E+03 CFU/ml in series [3] (1X MIC, 8 h). Also, the “AVE CFU/ml” value was 2466667 CFU/ml and 2.47E+06 CFU/ml in series [3] (1X MIC, 24 h); 9800000 CFU/ml in series [3] (4X MIC, 0 h); 7.67E+06 CFU/ml and 7666667 CFU/ml in series [3] (4X MIC, 1 h); 3.87E+06 CFU/ml and 3866667 CFU/ml in series [3] (4X MIC, 2 h); 40000 CFU/ml and 4.00E+04 CFU/ml in series [3] (4X MIC, 4 h); 5266.67 CFU/ml and 5.27E+03 CFU/ml in series [3] (4X MIC, 6 h). In addition, the “AVE CFU/ml” value in series [3] (4X MIC, 8 h) is 1066.67 CFU/ml and 1.07E+03 CFU/ml; in series [3] (4X MIC, 24 h) it was 0 CFU/ml and 0.00E+00 CFU/ml. Besides, the “CFU/mL, replicates 1-3” value was 8200000 CFU/mL and 8000000 CFU/mL and 8400000 CFU/mL in series [3] (1X MIC, 1 h); 3800000 CFU/mL and 3200000 CFU/mL and 3400000 CFU/mL in series [3] (1X MIC, 2 h); 60000 CFU/mL and 58000 CFU/mL and 64000 CFU/mL in series [3] (1X MIC, 4 h); 24000 CFU/mL and 32000 CFU/mL and 26000 CFU/mL in series [3] (1X MIC, 6 h); 5800 CFU/mL and 5400 CFU/mL and 6000 CFU/mL in series [3] (1X MIC, 8 h); 2400000 CFU/mL and 2200000 CFU/mL and 2800000 CFU/mL in series [3] (1X MIC, 24 h). Besides, the “CFU/mL, replicates 1-3” value in series [3] (4X MIC, 1 h) was 7800000 CFU/mL and 7200000 CFU/mL and 8000000 CFU/mL; in series [3] (4X MIC, 2 h), 3400000 CFU/mL and 4000000 CFU/mL and 4200000 CFU/mL; in series [3] (4X MIC, 4 h), 36000 CFU/mL and 42000 CFU/mL (2×); in series [3] (4X MIC, 6 h), 4400 CFU/mL and 5200 CFU/mL and 6200 CFU/mL; in series [3] (4X MIC, 8 h) it was 1400 CFU/mL and 800 CFU/mL and 1000 CFU/mL; in series [3] (4X MIC, 24 h), 0 CFU/mL. Moreover, in series [3] (Neisseria gonorrhoeae, ATCC49226), 0.008 µg/mL (≈ 0.0144 µM) was the least that counted as inhibitory (MIC).
On to `Nc1ccc2cc3ccccc3cc2c1` [2-Aminoanthracene, reference compound], for which the “Average Mean Revertants/plate” value in series [2] (TA98, 2 µg/plate, + S9) amounted to 1206.7 Revertants/plate; in series [2] (TA100, 2 µg/plate, + S9), 1438.7 Revertants/plate. Besides, the “Mean Revertants/plate” value in series [2] (TA98, 2 µg/plate, + S9, replicates) is 1086 Revertants/plate and 1134 Revertants/plate and 1400 Revertants/plate; in series [2] (TA98, + S9, 2 µg/plate), 1206.7; in series [2] (TA100, 2 µg/plate, + S9, replicates), 1428 Revertants/plate and 1389 Revertants/plate and 1499 Revertants/plate; in series [2] (TA100, + S9, 2 µg/plate), 1438.7.
As to `O=C(Nc1nnc(-c2ccc(F)cc2)o1)c1ccccc1` [MBXC1-4227], the MIC in series [1] (Neisseria gonorrhoeae ATCC 49226, source data, individual replicates) was 0.8852 µg/mL and 0.4426 µg/mL.
Usually Solubility stands for the concentration that dissolves in the medium under given conditions. `O=C(Nc1nnc(-c2ccc(F)cc2)o1)c1ccccc1` [MBX-C4227]: the “Average MLMS t½” value in series [4] (average of replicates) is less than 5 min. For the same molecule, in series [4] (individual replicates), the “MLMS t½” value was less than 5 min. In addition, in series [5], the “Average solubility” value was 50 µM. The same molecule registered a Solubility in series [5] (single replicates) of 50 µM (≈ 14.2 µg/mL).
On to `CNC(C)C1CCC(N)C(OC2C(N)CC(N)C(OC3OCC(C)(O)C(NC)C3O)C2O)O1` (stereo not shown) [gentamicin, reference compound], for which the mouse cfu is 2.00E+01 CFU/mL (19×) and 3.11E+03 CFU/mL in series [6] (Day 5, GEN, listed as GEN); 2.00E+01 CFU/mL (19×) and 6.14E+04 CFU/mL in series [6] (Day 6, GEN, listed as GEN); 2.00E+01 CFU/mL (19×) and 3.22E+05 CFU/mL in series [6] (Day 7, GEN, listed as GEN); 2.00E+01 CFU/mL (19×) and 5.02E+06 CFU/mL in series [6] (Day 8, GEN, listed as GEN); 1.75E+06 CFU/mL and 2.50E+03 CFU/mL and 5.59E+05 CFU/mL and 1.30E+04 CFU/mL and 2.52E+05 CFU/mL and 1.60E+05 CFU/mL and 6.90E+06 CFU/mL and 1.04E+06 CFU/mL and 2.76E+04 CFU/mL and 2.76E+06 CFU/mL and 1.05E+03 CFU/mL and 2.80E+06 CFU/mL and 2.25E+06 CFU/mL and 3.27E+05 CFU/mL and 1.99E+05 CFU/mL and 1.82E+05 CFU/mL and 1.55E+06 CFU/mL and 1.50E+06 CFU/mL and 9.59E+05 CFU/mL and 4.61E+03 CFU/mL in series [6] (Day -1, GEN, listed as GEN). The “mice cleared per day: cleared flag” value in series [6] (GEN, individual mice 21-40, 1 = cleared on the day, 0 = not cleared, listed as GEN) is 1 and 0. Also, the “Day (mice cleared per day: day on which the mouse was cleared)” value in series [6] (GEN, individual mice 21-40, Day 8 with flag 0 = not cleared, listed as GEN) was 1 and 4 and 8 and 3 and 5 and 2. For the same molecule, the “treated mice with infection cleared” value in series [6] (daily intraperitoneal injection 48 mg/kg for 5 days, N. gonorrhoeae H041) came to 95%.
